This is an account of results in US20200397901A1, “PHOTORESPONSIVE SMOOTHENED LIGAND” (The University of Tokyo, priority 2018, published 2020).

Usually EC50 stands for the concentration that produces a half-maximal response.

The subject of data set [1] is ventral cerebrum markers NKX2.1 and MASH1 in cerebral organoid. Briefly: Immunohistostaining of cerebral organoids with anti-NKX2.1 and anti-MASH1 antibody. In kind it is cell-based, human. As to the method: (§1) The cell line iPSC 409B2 (Cell no. HPS0076) was obtained from National University Corporation Kyoto University through RIKEN BioResource Center Cell Bank. In order to maintain the undifferentiated state, the iPS cells were cultured in an Essential 8 medium on a dish coated with vitronectin (VNT-N, Thermofisher Scientific).
(§2) A cerebral organoid was prepared according to the method described in Lancaster et al., Nat Protoc. 9: 2329-2340, 2014. Using TrypLE™ (Thermofisher Scientific), hiPSCs cultured in an E8 medium were separated into single cells, which were then reaggregated to a cell mass having a density of approximately 10,000 cells, using a […] E6 medium, in a low-adhesion 96-well round bottom plate.
(§3) To the E6 medium, FGF2 (5 ng/mL, 0 to 4 days after initiation of the culture) and a ROCK inhibitor (Thiazovivine, 1μM, 0 to 4 days after initiation of the culture) were added. The medium was exchanged with a fresh one at 2 and 4 days after initiation of the culture. At 6 days after initiation of the culture, the medium was exchanged with a neural differentiation medium (DMEM/F12, 1% N2 supplement, insulin, 1% GlutaMax supplement, 1% NEAA, 1% penicillin-streptomycin, and 1 μg/mL heparin) containing SAG, caged SAG (photoresponsive protective group-binding SAG), or caged SAG before or after UV irradiation. When caged SAG was added, the culture was irradiated with a light for 15 minutes, using a halogen lamp. At 6, 8, and 10 days after initiation of the culture, the medium was exchanged with a fresh one.
Three types of organoids cultured under individual conditions were recovered at 11 days after initiation of the culture, and were then subjected to qPCR. […]
Thereafter, the organoid was cut into a frozen section with a size of […] and was recovered on a slide glass. […] A fluorescent image was obtained using an inverted fluorescence microscope equipped with a CMOS camera (Zyla4.2, Andor).

The test system of data set [2] is hedgehog signal downstream gene Gli in NIH-3T3 cells. Kind of data set: Hedgehog signal assay in NIH-3T3 cells (Gli expression, quantitative PCR). In kind it is cell-based. How it is done:
(§4) NIH-3T3 cells were allowed to grow in DMEM (supplemented with 10% FBS, glutamine, penicillin, and streptomycin). In order to perform a hedgehog signal assay, the cells that had been cultured to reach confluent were cultured in a starvation-induced medium (DMEM; serum not added) overnight, so that the cells were in a starved state. Subsequently, the medium was exchanged with a starvation-induced medium supplemented with SAG, caged SAG, SANT75, caged SANT75, or the like. Using a halogen lamp, the cells were irradiated with a light for 15 minutes. Thereafter, total RNA was extracted from the NIH-3T3 cells cultured for 6 hours, and was then subjected to real-time PCR.
(§5) Total RNA was extracted using TriPure Isolation Reagent kit (Roche Diagnosis). cDNA was synthesized using SuperScript (registered trademark) IV Reverse Transcriptase (Invitrogen). Quantitative PCR was carried out using KAPA SYBR Fast qPCR kit (KAPA Biosystems). The data were standardized with respect to the expression level of GAPDH.

In data set [3] the target is Smoothened (Mus musculus, UniProt P56726). Conditions: previously reported, Chen et al., Proc. Natl. Acad Sci, 99: 14071-14076, 2002; cited from earlier work.
Chain of Smoothened (P56726 33-793): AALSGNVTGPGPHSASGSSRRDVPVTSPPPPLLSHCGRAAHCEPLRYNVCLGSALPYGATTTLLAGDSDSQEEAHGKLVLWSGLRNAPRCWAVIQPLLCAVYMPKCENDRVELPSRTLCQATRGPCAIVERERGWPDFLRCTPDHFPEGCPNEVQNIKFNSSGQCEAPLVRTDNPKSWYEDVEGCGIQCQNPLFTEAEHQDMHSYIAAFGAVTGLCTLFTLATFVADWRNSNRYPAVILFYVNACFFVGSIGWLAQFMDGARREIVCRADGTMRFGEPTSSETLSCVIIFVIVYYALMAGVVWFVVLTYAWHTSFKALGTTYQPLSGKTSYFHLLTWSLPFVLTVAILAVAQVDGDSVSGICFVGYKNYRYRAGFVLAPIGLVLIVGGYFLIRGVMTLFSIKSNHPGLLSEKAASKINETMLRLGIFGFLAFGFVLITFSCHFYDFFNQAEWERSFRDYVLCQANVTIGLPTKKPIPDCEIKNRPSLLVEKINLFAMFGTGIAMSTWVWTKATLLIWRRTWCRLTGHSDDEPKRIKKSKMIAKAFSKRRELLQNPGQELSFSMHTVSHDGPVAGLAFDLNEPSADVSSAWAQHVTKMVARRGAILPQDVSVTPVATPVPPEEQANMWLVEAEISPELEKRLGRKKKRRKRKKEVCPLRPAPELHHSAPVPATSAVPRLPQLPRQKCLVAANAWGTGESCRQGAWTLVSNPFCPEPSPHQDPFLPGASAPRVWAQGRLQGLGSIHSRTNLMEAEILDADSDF
Data set [4] deals with hedgehog signals (Glil expression). Briefly: Inhibition of SAG-induced hedgehog signals (Glil expression) by antagonist. In kind it is cell-based. The conditions noted are these: SAG 100 nM and SANT75 1 μM simultaneously. As to the method:
as §4, §5

Data set [5] can be described thus: Photolysis kinetic analysis of caged SAG using HPLC (365 nm light). In kind it is physicochemical. The conditions noted are these: 100 μM caged SAG in PBS:DMSO=9:1, light at 365 nm, 0 to 8 J/cm^2, HPLC. How it is done:
100 μM Caged SAG (PBS:DMSO=9:1) was irradiated with a light at a wavelength of 365 nm at an energy intensity of 0 to 8 J/cm^2. Each sample was analyzed according to HPLC (5-C18-AR-II column, at 0 min, CH3CN:H2O=5:95, at 8 min, 30:70, and then at 15 min, 0:100). Each fraction obtained by HPLC was recovered, and was then analyzed according to ESI spectrometry.

The test system of data set [6] is ventral cerebrum markers NKX2.1 and MASH1 in cerebral organoid. Kind of data set: Expression of ventral cerebrum markers in cerebral organoids, quantitative PCR. In kind it is cell-based, human. As to the method: as §1, §2, §3
Three types of organoids cultured under individual conditions were recovered at 11 days after initiation of the culture, and were then subjected to qPCR. Each organoid was embedded in a Matrigel droplet (25 μl), and was then transferred on a 60-mm dish containing a brain differentiation medium (DMEM/F12 : Neurobasal™ media=1:1, which was supplemented with a 0.5% N2 supplement, a 1% GlutaMax supplement, 0.5% NEAA, 1% penicillin-streptomycin, insulin, and a 1% B27 supplement (not containing vitamin A)). At 15 days after initiation of the culture, the medium was exchanged with a brain differentiation medium supplemented with a vitamin A-containing B27 supplement, and was then transferred into an Orbital Shaker. Thereafter, the medium was exchanged with a fresh one, every 4 or 5 days, until 30 days after initiation of the culture.
as §5

For the compound `CNC1CCC(N(Cc2cccc(-c3ccncc3)c2)C(=O)c2sc3ccccc3c2Cl)CC1` (centres unmarked) [SAG, reference compound], in data set [1] (cultured in the presence of SAG (SAG(+))), the “expression levels of NKX2.1 and MASH1” value is “increased”. In addition, the “activation (expression level of Gli)” value in data set [2] (SAG at 1 nM) is recorded as “only a little activation”; in data set [2] (SAG at 10 nM) it was “activation was observed”. Moreover, the “expression level of Gli” value in data set [2] (cells cultured in the presence of SAG) was “increased”. In data set [3], the concentration giving a half-maximal response (EC50) was 3 nM.

`CCCNC1CCC(N(Cc2cccc(-c3ccncc3)c2)C(=O)c2sc3ccccc3c2Cl)CC1` (centres unmarked) [SANT75]: in data set [4], the “inhibition of hedgehog signals (expression level of Glil)” value was “competitive inhibition”.

Regarding `COc1cc(C(C)OC(=O)N(C)C2CCC(N(Cc3cccc(-c4ccncc4)c3)C(=O)c3sc4ccccc4c3Cl)CC2)c([N+](=O)[O-])cc1OCCCC(=O)O` (centres unmarked) [caged SAG], the “energy intensity at which photolysis was almost completed” value in data set [5] was 2-4 J/cn^2. In data set [6] (as a result of light irradiation), the Smo agonistic activity entry is “the same level of Smo agonistic activity as that of SAG”. Moreover, the “expression levels of NKX2.1 and MASH1” value in data set [6] (caged SAG after completion of light irradiation, 100 nM, quantitative PCR) is “increased”; in data set [1] (caged SAG after completion of light irradiation (100 nM)), “increased”; in data set [1] (cerebral organoid cultured in the presence of caged SAG irradiated with a light) it was “increased”. Also, the “expression of the ventral cerebrum markers (NKX2.1 and MASH1)” value in data set [6] (caged SAG before light irradiation, 100 nM, quantitative PCR) is “not induced”. The “activity of caged SAG” value in data set [6] (photodissociable protective group bound, without light irradiation) was “suppressed”. Also, in data set [2] (100 nM caged SAG, cells irradiated with a light), the “expression level of Gli” value is “increased”. Also, the “expression of Gli” value in data set [2] (100 nM caged SAG, cells not irradiated with a light) was “could not be confirmed”. For the same compound, the “activation (expression level of Gli)” value in data set [2] (caged SAG at 1 nM, with light irradiation) was “only a little activation”; in data set [2] (caged SAG at 10 nM, with light irradiation), “activation was observed”.
